{"source": "patent US11826396B2", "about": "“Nutriprotective diet” (FÉDÉRATION DES PRODUCTEURS ACÉRICOLES DU QUÉBEC, priority 2011, dated 2023)", "experiment": "diphenylpicrylhydrazyl (DPPH) radical scavenging assay", "format": "biochemical", "details": "read-out: antioxidant activity, IC50"}
{"smiles": "O=C1O[C@H]([C@@H](O)CO)C(O)=C1O", "note": "[vitamin C, Ascorbic acid]", "values": [{"measurement": "IC50", "value": 58, "unit": "µM"}]}
{"smiles": "Cc1cc(C(C)(C)C)c(O)c(C(C)(C)C)c1", "note": "[butylatedhydroxytoluene]", "values": [{"measurement": "IC50", "value": 2650, "unit": "µM"}]}
